Test results reported in US20060189576A1, “Substituted vitamin d analogues and their therapeutic uses” (priority 2003, published 2006).
Like-named read-outs stand apart in the source and are kept apart here. Marks after values point to notes of the source that are not given here.

Legend:
[1] = Primary prevention of osteoporosis in ovariectomized mice; format: in vivo, C3H female mice
Experimental: 12 week old C3H female mice are subjected to bilateral ovariectomy or sham surgery. The animals are treated with the analog or vehicle by oral gavage or intraperitoneally. Dosing is started 3 days after sugery and continued for 8-9 weeks.
(§1) Before the first treatment in vivo measurements are performed to determine bone mineral density (BMD), bone mineral content (BMC) of total body and spine by dual-energy X-ray absorptiometry (DXA). Urine and serum is collected to measure calcium levels together with collagen cross-links in urine and osteocalcin in serum. The animals are weighed regularly during the experimental period. After 4 weeks treatment urine and serum is again collected and biochemical parameters are determined. At the end of the experiment (8-9 weeks) urine is collected and DXA measurement is performed in vivo to determine BMD and BMC. After killing the animals tibiae and femora are dissected The following biochemical parameters are investigated: serum calcium, serum osteocalcin, urine calcium, urine collagen cross-links, femur calcium.
(§2) Tibiae are used for histomorphometric analysis and femurs for measurement of cortical and trabecular volumetric density and geometry by peripheral quantitative computed tomography (pQCT) ex vivo.

[2] = for Femur calcium: NMRI mice; for IN VIVO STUDIES Osteocalcin serum: mice, daily intraperitoneal injection 7 consecutive days, percentage activity vs 1α,25(OH)2D3 (=100%); for IN VIVO STUDIES Calcium serum / IN VIVO STUDIES Calcium urine / Serum calcium in mice: mouse, ip, in vivo
Experimental: Eight weeks old, male NMRI mice were obtained from the Proefdierencentrum of Leuven (Belgium) and fed a vitamin D-replete diet (0.2% calcium, 1% phosphate, 2000 U vitamin D/kg; Hope Farms, Woerden, The Netherlands). […] The control group was injected with vehicle (arachis oil). The average weight of each group of 6 mice was determined at the beginning and at the end of the experiment. The following parameters were evaluated: serum calcium, serum osteocalcin, femur calcium and urinary calcium. Serum and urinary calcium were measured by a microcolorimetric assay (Sigma, St. Louis, Mo.). Femurs were removed and femur calcium content was measured in HCl-dissolved bone ash (obtained by heating for 24 h in an oven at 100° C.), using the same technique as for serum and urinary calcium.

hDBP = target: T1, hDBP (Homo sapiens, UniProt P02774); test: Affinity for human DBP: competition with [3H]1α,25(OH)2D3; format: binding; details: percentage activity (at 50% of the dose response) in comparison with 1α,25(OH)2D3 (=100%)
T1 sequence (P02774 17-474): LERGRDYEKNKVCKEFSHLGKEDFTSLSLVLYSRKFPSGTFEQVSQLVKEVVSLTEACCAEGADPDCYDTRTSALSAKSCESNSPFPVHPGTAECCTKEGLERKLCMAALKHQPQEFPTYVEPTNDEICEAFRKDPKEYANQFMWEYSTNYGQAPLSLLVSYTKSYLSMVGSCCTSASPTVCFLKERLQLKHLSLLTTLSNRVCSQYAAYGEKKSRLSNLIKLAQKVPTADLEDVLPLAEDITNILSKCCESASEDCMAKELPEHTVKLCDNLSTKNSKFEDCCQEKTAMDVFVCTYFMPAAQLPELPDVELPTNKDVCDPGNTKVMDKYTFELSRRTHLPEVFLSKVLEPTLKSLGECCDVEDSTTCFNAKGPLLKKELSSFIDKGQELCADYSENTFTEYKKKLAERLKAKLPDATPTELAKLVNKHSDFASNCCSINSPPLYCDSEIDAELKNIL
Experimental: Phase separation was then obtained by the addition of 0.5 ml of cold dextran-coated charcoal.

[3] = Secondary prevention or treatment of osteoporosis in ovariectomized mice; format: in vivo, C3H female mice
Experimental: 12 week old C3H female mice are subjected to bilateral ovariectomy or sham surgery. The animals are treated with the analog or vehicle by oral gavage or intraperitoneally. Dosing is started 4 weeks after sugery and continued for 4-10 weeks.
as §1, with “dual-energy,” for “dual-energy”, “determined and” for “determined. At the end of the experiment (8-9 weeks)”
as §2

HL-60 cells = test: HL-60 cell differentiation (NBT reduction assay); format: cell-based; details: for IN VITRO STUDIES HL 60: potency to differentiate HL 60 cells, percentage activity vs 1α,25(OH)2D3 (=100%)
Experimental: To evaluate the effect on cell differentiation HL-60 cells were seeded at 4×10^4 cells/ml in 25 cm^2 Falcon tissue chambers using RPMI 1640 medium supplemented with 20% FCS and gentamycin (50 μg/ml) in a final volume of 5 ml. Cultures were maintained at 37° C. in a humidified atmosphere of 5% CO2 in air. […] After 4 days of culture, the dishes were shaken to lose adherent cells. Cells were washed twice in RPMI, counted and assayed for differentiation markers (NBT reduction assay). Superoxide production was measured as NBT reducing activity as described previously (Ostrem V. K et al. Proc Natl Acad Sci USA 84: 2610-2614, 1987). HL-60 cells at 1×10^6/ml were mixed with an equal volume of freshly prepared solution of phorbol 12-myristate 13-acetate (200 ng/ml) and […] and incubated for 30 min at 37° C. The percentage of cells containing black formazan deposits was determined using a hemacytometer.

vitamin D receptor = target: T2, vitamin D receptor (Sus scrofa, UniProt A3RGC1); details: percentage activity (at 50% of the dose response) in comparison with 1α,25(OH)2D3 (=100%)
T2 sequence (A3RGC1 1-427): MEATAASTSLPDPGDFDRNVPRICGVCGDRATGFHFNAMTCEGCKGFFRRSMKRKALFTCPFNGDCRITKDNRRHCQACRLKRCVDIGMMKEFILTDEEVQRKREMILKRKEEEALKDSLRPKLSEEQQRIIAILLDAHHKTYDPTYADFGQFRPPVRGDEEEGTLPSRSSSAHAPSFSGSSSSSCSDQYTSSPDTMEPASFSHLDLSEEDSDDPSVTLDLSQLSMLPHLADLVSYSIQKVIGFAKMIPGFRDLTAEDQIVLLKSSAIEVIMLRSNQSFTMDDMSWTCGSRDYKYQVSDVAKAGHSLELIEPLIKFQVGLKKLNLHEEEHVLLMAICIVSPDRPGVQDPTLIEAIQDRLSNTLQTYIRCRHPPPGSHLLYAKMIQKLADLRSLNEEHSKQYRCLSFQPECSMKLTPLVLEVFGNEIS
Experimental: The incubation was performed at 4° C. for 20 h and phase separation was obtained by addition of dextran-coated charcoal.

MCF-7 cells [4] = test: MCF-7 cell proliferation ([3H]thymidine incorporation); format: cell-based; details: for IN VITRO STUDIES MCF-7: antiproliferative action, percentage activity vs 1α,25(OH)2D3 (=100%); for Antiproliferative activity on MCF-7 cells: percentage activity (at 50% of the dose response) vs 1α,25(OH)2D3 (=100%)
Experimental: To evaluate the effect of on cell proliferation, malignant MCF-7 cells were cultured in DMEM/nut. mix. […] Cultures were maintained at 37° C. in a humidified atmosphere of 5% CO2 in air. MCF-7 cells were seeded at 5×10^3 cells/well in the above described medium in 96-well microtiter plates in a final volume of 0.2 ml per well. Triplicate cultures were performed. […] Then, 1 μCi [^3H]thymidine was added to each well and cells were harvested after 4 h incubation with a Packard harvester and measured by the Packard Topcount System (Packard, Meriden, USA).

[5] = background, well established; cited from earlier work
[6] = known superagonists; data published in J Bone Mineral Res 15 (2): 237-252 (2000); cited from earlier work
MCF-7 cells [7] = details: known superagonists; data published in J Bone Mineral Res 15 (2): 237-252 (2000); cited from earlier work

Compound	IN VIVO STUDIES Calcium serum [2]	IN VIVO STUDIES Calcium urine [2] [%]	Serum calcium in mice [2]	AFFINITY STUDIES DBP (hDBP) [%]	AFFINITY STUDIES VDR (vitamin D receptor) [%]	IN VIVO STUDIES Osteocalcin serum [2] [%]	prodifferentiating effect (in words) (HL-60 cells; HL 60 cells)	IN VITRO STUDIES HL 60 (HL-60 cells) [%]	antiproliferative effect (in words) (MCF-7 cells [4]; MCF-7 cells)	IN VITRO STUDIES MCF-7 (MCF-7 cells [4]) [%]	Antiproliferative activity on MCF-7 cells (MCF-7 cells [4]) [%]	further results
14-epi-2α-methyl-19-nor-23-yn-1α,25-dihydroxyvitamin D3 [Compound 108]	2%	4	2%	0.3	80	4	very potent	4000	very potent	12000	12000	serum calcium or urinary calcium levels ([1]; after at least four weeks, more particularly 8 weeks of treatment): not significantly increased; BMD, BMC and femur calcium ([1]; ovariectomized mice, dosing from 3 days after surgery for 8-9 weeks): increase; increase of calcium levels in bone compared to 0.1 μg/kg/d 1,25(OH)2D3 ([2]; 1 μg/kg/d, 7 consecutive days): 18%; increase of calcium levels in bone compared to 0.2 μg/kg/d 1,25(OH)2D3 ([2]; 1 μg/kg/d, 7 consecutive days): 14%; increase of calcium levels in bone compared to 0.4 μg/kg/d 1,25(OH)2D3 ([2]; 1 μg/kg/d, 7 consecutive days): 20%; increase of calcium levels in bone compared to vehicle treated mice ([2]; 1 μg/kg/d, 7 consecutive days): 10%; Femur calcium ([2]; 0.4 μg/kg/d intraperitoneally, 7 consecutive days): 9.57 ± 0.26 mg; Femur calcium ([2]; 1 μg/kg/d intraperitoneally, 7 consecutive days): 10.52 ± 0.43*^,$ mg; serum calcium or urinary calcium levels ([3]; after four weeks, more particularly 8 weeks of treatment): not significantly increased; BMD, BMC and femur calcium concentration ([3]; ovariectomized mice, dosing from 4 weeks after surgery, compared to levels prior to treatment): increase; prodifferentiating activity, times that of 1α,25(OH)2D3 (HL-60 cells; HL 60 cells): 40 times; antiproliferative activity, times that of 1α,25(OH)2D3 (MCF-7 cells [4]; MCF-7 cells): 120 times
C[C@H](CCCC(C)(C)O)[C@H]1CC[C@H]2/C(=C/C=C3C[C@@H](O)C[C@H](O)C3)CCC[C@]12C [19-nor-1α,25-dihydroxyvitamin D3]												calcemic effect, % of that of 1α,25(OH)2D3 [5]: 10%
CCC1C(O)CC(=CC=C2CCCC3(C)C2CCC3C(C)CC#CC(C)(C)O)CC1O (stereo not drawn) [Compound 111, 2β-ethyl-19-nor-23-yne-1α,25(OH)2D3]	0.4%	0.8	0.4%	0.5	9	0.8		80		700	700	
CCC1C(O)CC(=CC=C2CCCC3(C)C2CCC3C(C)CC#CC(C)(C)O)CC1O (stereo not drawn) [Compound 112, 2α-ethyl-19-nor-23-yne-1α,25(OH)2D3]	1.6%	0.8		0.9	55	3	very potent	300	very potent	2000		enhancement of antiproliferative effects on MCF-7 cells on introduction of the 23-yne side chain (MCF-7 cells [4]; compared with 2α-ethyl-19-nor-1α,25(OH)2D3 (110)): 3 fold
CCC1C(O)CC(=CC=C2CCCC3(C)C2CCC3C(C)CCCC(C)(C)O)CC1O (stereo not drawn) [Compound 113]	0.4%	0.4		3	8	0.4		10		75		
C=C1/C(=C\C=C2/CCC[C@]3(C)[C@@H]([C@H](C)/C=C/[C@@H](O)C4CC4)CC[C@@H]23)C[C@@H](O)C[C@@H]1O [MC 903]												Serum calcium in mice [6]: 1%; Antiproliferative activity on MCF-7 cells (MCF-7 cells [7]): 100-200%
C=C1/C(=C\C=C2/CCC[C@]3(C)[C@@H]([C@H](C)OCCC(C)(C)O)CC[C@@H]23)C[C@@H](O)C[C@@H]1O [OCT]												Serum calcium in mice [6]: 0.3%; Antiproliferative activity on MCF-7 cells (MCF-7 cells [7]): 100-150%

Second part, led by results:

IN VIVO STUDIES Calcium serum [2]	IN VIVO STUDIES Calcium urine [2] [%]	Serum calcium in mice [2]	AFFINITY STUDIES DBP (hDBP) [%]	AFFINITY STUDIES VDR (vitamin D receptor) [%]	Compound	IN VIVO STUDIES Osteocalcin serum [2] [%]	prodifferentiating effect (in words) (HL-60 cells; HL 60 cells)	IN VITRO STUDIES HL 60 (HL-60 cells) [%]	antiproliferative effect (in words) (MCF-7 cells [4]; MCF-7 cells)	IN VITRO STUDIES MCF-7 (MCF-7 cells [4]) [%]	Antiproliferative activity on MCF-7 cells (MCF-7 cells [4]) [%]	further results
1%	1		40	30	CCC1C(O)CC(=CC=C2CCCC3(C)C2CCC3C(C)CCCC(C)(C)O)CC1O (stereo not drawn) [Compound 114, 2α-ethyl-14-epi-19-nor-1α,25(OH)2D3]	1		80		150		
<<0.1%	<0.1	<<0.1%	0.2	9	CCC1C(O)CC(=CC=C2CCCC3(C)C2CCC3C(C)CC#CC(C)(C)O)CC1O (stereo not drawn) [Compound 115, 2β-ethyl-14-epi-19-nor-23-yne-1α,25(OH)2D3]	0.1		80		600	600	
0.2%		0.2%	0.1	65	CCC1C(O)CC(=CC=C2CCCC3(C)C2CCC3C(C)CC#CC(C)(C)O)CC1O (stereo not drawn) [Compound 116, 2α-ethyl-14-epi-19-nor-23-yne-1α,25(OH)2D3]	0.2	very potent	550	very potent	3000	3000	
<0.25%	<0.25		0	40	CC(CC#CC(C)(C)O)C1CCC2C(=CC=C3CC(O)C(C)C(O)C3)CCCC21C (stereo not drawn) [Compound 117, 3,14-bis-epi-2α-methyl-19-nor-23-yn-1α,25-dihydroxyvitamin-D3]		very potent	400	very potent			
